{"source": "patent US20040033271A1", "about": "“Methods for contemporaneous administration of levamisole and 5-fluorouracil” (priority 2003, published 2004)", "origin": "cited, not measured here", "key": {"bladder cancer": {"system": "bladder cancer", "settings": "rats"}, "breast cancer [1]": {"system": "breast cancer", "settings": "post-surgical levamisole, large study"}, "[2]": {"system": "Human colorectal cancer xenografts", "settings": "levamisole alone"}, "[3]": {"test": "not given", "remark": "listed apart in the source"}, "A375 melanoma cell line": {"system": "A375 melanoma cell line", "settings": "most sensitive cell line"}, "[4]": {"settings": "guinea pigs"}, "Dukes' C. colon cancer": {"system": "Dukes' C. colon cancer", "settings": "levamisole alone"}, "[5]": {"settings": "levamisole in humans"}, "[6]": {"test": "not given", "remark": "listed apart in the source"}, "breast cancer [7]": {"system": "breast cancer", "settings": "superimposed on CAF; no same-day 5-FU and levamisole"}, "colorectal cancer": {"system": "colorectal cancer", "settings": "added to leucovorin/5-FU regimen after surgical resection"}}, "note": "Like-named read-outs stand apart in the source and are kept apart here.", "data": [{"smiles": "c1ccc([C@@H]2CN3CCSC3=N2)cc1", "note": "[Dexamisole]", "values": [{"measurement": "potentiation of BCNU compared with levamisole", "setting": "bladder cancer", "value": "less active"}]}, {"smiles": "c1ccc([C@H]2CN3CCSC3=N2)cc1", "note": "[levamisole]", "values": [{"measurement": "recurrence", "setting": "breast cancer [1]", "value": "increase in recurrence"}, {"measurement": "time to peak plasma concentration", "setting": "after oral levamisole administration", "value": 2, "unit": "h"}, {"measurement": "difference between the highest and lowest AUC (area under curve)", "setting": "twenty cancer patients, oral levamisole 50 mg t.i.d.", "value": "seven"}, {"measurement": "effect on xenografts", "setting": "[2]", "value": "unaffected"}, {"measurement": "adverse effect of increased oral dose", "setting": "[3]; five-fold increase in the recommended oral levamisole dose", "value": "severe nausea and vomiting"}, {"measurement": "maximum tolerable dose", "setting": "[3]; oral t.i.d. for five days with daily 5-FU, repeated every five weeks", "value": 100, "unit": "mg/m^2"}, {"measurement": "levamisole concentration affecting colony formation", "setting": "A375 melanoma cell line; in presence of 5-FU", "value": 30, "unit": "µg/mL"}, {"measurement": "levamisole concentration affecting colony formation", "setting": "A375 melanoma cell line; molar value in brackets", "value": 0.125, "unit": "µM"}, {"measurement": "IV dose at which ECG irregularities were seen", "setting": "[4]", "value": 10, "unit": "mg/kg"}, {"measurement": "clinical benefit", "setting": "Dukes' C. colon cancer", "value": "no benefit"}, {"measurement": "serum half-life", "setting": "[5]", "value": "about four"}, {"measurement": "time after administration at which cardiac effects are seen", "setting": "[6]; bolus IV, stated for rats and guinea pigs together", "value": "≤ 60", "unit": "s"}, {"measurement": "IV dose at which cardiotoxicity was observed (as low as)", "setting": "[6]; rats, IV", "value": 2, "unit": "mg/kg"}, {"measurement": "effect of added levamisole", "setting": "breast cancer [7]", "value": "modest effects over untreated historical controls"}, {"measurement": "effect of addition of levamisole", "setting": "colorectal cancer", "value": "no additive effect"}]}, {"smiles": "Oc1ccc([C@H]2CN3CCSC3=N2)cc1", "note": "[4-hydroxy analogue of levamisole, 4-hydroxylevamisole]", "values": [{"measurement": "phosphatase inhibition", "setting": "phosphatases", "value": "capable of inhibiting phosphatases"}]}, {"smiles": "Brc1ccc([C@H]2CN3CCSC3=N2)cc1", "note": "[4-bromo analogue of levamisole, 4-bromolevamisole]", "values": [{"measurement": "phosphatase inhibition", "setting": "phosphatases", "value": "capable of inhibiting phosphatases"}]}]}
